Experimental data: article PMC11876601 (Molecular Systems Biology, 2025)
Read-outs that look alike come from different tables or passages of the source.

Assays:
[1] = tested on: HPDE (immortalized pancreatic duct cell line); experiment: Drug combination viability screen (ATPlite, 72 h); format: cell-based, human; settings: HPDE; for EC50: Homo sapiens;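 as to AUC: area under vehicle-normalized viability curve scaled 0 to 100 percent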;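 as to Curve bottom: fraction of vehicle control viability from four-parameter log-logistic fit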
PSN-1 cells = experiment: Drug combination viability screen (ATPlite, 72 h); format: cell-based, human; settings: for EC50: Homo sapiens, PSN1;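 as to AUC: area under vehicle-normalized viability curve scaled 0 to 100 percent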;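 as to Curve bottom: fraction of vehicle control viability from four-parameter log-logistic fit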
TANK = tested on: TANK; design: method as in Klaeger et al. (2017); settings: lysate 4 cell line mix (Colo205, K-562, MV-4-11, and SK-N-BE(2)), Kinobeads y, ref Klaeger et al. (2017); cited from earlier work
STK4 = tested on: STK4; design: method as in Klaeger et al. (2017); settings: STK4, 4 cell line mix lysate, Kinobeads y, ref Klaeger et al. (2017); cited from earlier work
INCENP = tested on: INCENP; design: method as in Klaeger et al. (2017); settings: lysate 4 cell line mix (Colo205, K-562, MV-4-11, and SK-N-BE(2)), Kinobeads y, ref Klaeger et al. (2017); cited from earlier work
MAP4K2 = tested on: MAP4K2; design: method as in Klaeger et al. (2017); settings: MAP4K2, 4 cell line mix lysate, Kinobeads y, ref Klaeger et al. (2017); cited from earlier work
PRKD1 = tested on: PRKD1; design: method as in Reinecke et al. (2023); settings: PRKD1, 5 cell line mix lysate, Kinobeads ε, ref Reinecke et al. (2023), cited from earlier work
EIF3J = settings: 5 cell line mix lysate, Kinobeads ε, ref Reinecke et al. (2023), cited from earlier work
PKN3 = tested on: PKN3; design: method as in Reinecke et al. (2023); settings: PKN3, 5 cell line mix lysate, Kinobeads ε, ref Reinecke et al. (2023), cited from earlier work
FRK = target: FRK; design: method as in Reinecke et al. (2023); settings: 5 cell line mix lysate, Kinobeads ε, ref Reinecke et al. (2023), cited from earlier work
NUAK1 = tested on: NUAK1; design: method as in Reinecke et al. (2023); settings: NUAK1, 5 cell line mix lysate, Kinobeads ε, ref Reinecke et al. (2023); cited from earlier work

Q: With `Nc1ccn([C@@H]2O[C@H](CO)[C@@H](O)C2(F)F)c(=O)n1` [GEM, Gemcitabine] as the molecule, how does the Reponse ([1]; R1, 13.72 nM) read?
A: The Reponse was 2430360.

Q: What about the Reponse ([1]; R1, 41.15 nM) of the same molecule?
A: The Reponse was 2458400.

Q: What about the Reponse ([1]; R1, 123.46 nM) of the same molecule?
A: Its Reponse is 2746800.

Q: And the Reponse ([1]; R1, 370.37 nM)?
A: The Reponse was 2410520.

Q: What about the Reponse ([1]; R1, 1111.11 nM) of the same molecule?
A: The Reponse was 2265000.

Q: What about the Reponse ([1]; R1, 3333.33 nM) of the same molecule?
A: Its Reponse is 1887440.

Q: And the Reponse ([1]; R1, 10000 nM)?
A: The Reponse was 1259640.

Q: And the Reponse ([1]; R2, 13.72 nM)?
A: Its Reponse is 3059000.

Q: What about the Reponse ([1]; R2, 41.15 nM) of the same molecule?
A: Its Reponse is 2844720.

Q: And the Reponse ([1]; R2, 123.46 nM)?
A: Its Reponse is 2708840.

Q: And the Reponse ([1]; R2, 370.37 nM)?
A: Its Reponse is 2516400.

Q: And the Reponse ([1]; R2, 1111.11 nM)?
A: The Reponse was 2343080.

Q: And the Reponse ([1]; R2, 3333.33 nM)?
A: Its Reponse is 1957840.

Q: What about the Reponse ([1]; R2, 10000 nM) of the same molecule?
A: The Reponse was 1504480.

Q: What about the Curve bottom ([1]; GEM curve fit) of the same molecule?
A: The Curve bottom was 0.27.

Q: And the Curve effect size ([1]; GEM curve fit)?
A: The Curve effect size was 0.73.

Q: What about the Curve slope ([1]; GEM curve fit) of the same molecule?
A: The Curve slope was 1.67.

Q: What about the Curve top ([1]; GEM curve fit) of the same molecule?
A: The Curve top was 1.00.

Q: What about the AUC ([1]; GEM curve fit, in %) of the same molecule?
A: Its AUC is 48.78.

Q: And the EC50 ([1]; read-out: EC50)?
A: Its EC50 is 4.34 nM.

Q: And the EC50 ([1]; read-out: pEC50 (converted))?
A: The EC50 was 4.37 nM.

Q: What about the EC50 (PSN-1 cells; read-out: EC50) of the same molecule?
A: The EC50 was 3.44 nM.

Q: What about the EC50 (PSN-1 cells; read-out: pEC50 (converted)) of the same molecule?
A: The EC50 was 3.47 nM.

Q: And the Reponse (PSN-1 cells; PSN-1, R1, 13.72 nM)?
A: Its Reponse is 1225440.

Q: What about the Reponse (PSN-1 cells; PSN-1, R1, 41.15 nM) of the same molecule?
A: Its Reponse is 969400.

Q: What about the Reponse (PSN-1 cells; PSN-1, R1, 123.46 nM) of the same molecule?
A: Its Reponse is 806840.

Q: What about the Reponse (PSN-1 cells; PSN-1, R1, 370.37 nM) of the same molecule?
A: The Reponse was 818640.

Q: What about the Reponse (PSN-1 cells; PSN-1, R1, 1111.11 nM) of the same molecule?
A: Its Reponse is 786440.

Q: And the Reponse (PSN-1 cells; PSN-1, R1, 3333.33 nM)?
A: The Reponse was 785720.

Q: And the Reponse (PSN-1 cells; PSN-1, R1, 10000 nM)?
A: Its Reponse is 723120.

Q: What about the Reponse (PSN-1 cells; PSN-1, replicate R2, dose 13.72 nM, raw signal) of the same molecule?
A: Its Reponse is 1542400.

Q: And the Reponse (PSN-1 cells; PSN-1, replicate R2, dose 41.15 nM, raw signal)?
A: The Reponse was 1210080.

Q: What about the Reponse (PSN-1 cells; PSN-1, replicate R2, dose 123.46 nM, raw signal) of the same molecule?
A: The Reponse was 1089000.

Q: What about the Reponse (PSN-1 cells; PSN-1, replicate R2, dose 370.37 nM, raw signal) of the same molecule?
A: Its Reponse is 1103640.

Q: What about the Reponse (PSN-1 cells; PSN-1, replicate R2, dose 1111.11 nM, raw signal) of the same molecule?
A: The Reponse was 1004960.

Q: What about the Reponse (PSN-1 cells; PSN-1, replicate R2, dose 3333.33 nM, raw signal) of the same molecule?
A: Its Reponse is 1071400.

Q: What about the Reponse (PSN-1 cells; PSN-1, replicate R2, dose 10000 nM, raw signal) of the same molecule?
A: The Reponse was 1052080.

Q: And the AUC (PSN-1 cells; PSN-1, GEM curve fit)?
A: Its AUC is 35.4%.

Q: And the Curve bottom (PSN-1 cells; PSN-1, GEM curve fit)?
A: The Curve bottom was 0.11.

Q: What about the Curve effect size (PSN-1 cells; PSN-1, GEM curve fit) of the same molecule?
A: Its Curve effect size is 0.89.

Q: What about the Curve slope (PSN-1 cells; PSN-1, GEM curve fit) of the same molecule?
A: The Curve slope was 2.16.

Q: And the Curve top (PSN-1 cells; PSN-1, GEM curve fit)?
A: Its Curve top is 1.03.

Q: For `C[C@]12O[C@H](C[C@]1(O)CO)n1c3ccccc3c3c4c(c5c6ccccc6n2c5c31)CNC4=O` [Lestaurtinib], which EC50 (TANK) is on record?
A: The EC50 was 1340 nM.

Q: What about the EC50 (STK4) of the same molecule?
A: The EC50 was 59.4 nM.

Q: What about the EC50 (INCENP) of the same molecule?
A: Its EC50 is 520 nM.

Q: What does the source list for `COc1cc(N2CCC(N3CCN(C)CC3)CC2)ccc1Nc1ncc(Cl)c(Nc2ccccc2P(C)(C)=O)n1` [Brigatinib]?
A: EC50 (PRKD1): 45.9 nM; pKDapp (PRKD1): 7.50; Kd (PRKD1; read-out: KDapp): 31.4 nM; Kd (EIF3J; read-out: KDapp): 434 nM; EC50 (EIF3J): 434 nM; pKDapp (EIF3J): 6.36; EC50 (PKN3): 38500 nM; pKDapp (PKN3): 4.41; Kd (PKN3; read-out: KDapp): 38500 nM; Kd (FRK; read-out: KDapp): 53 nM; EC50 (FRK): 156 nM; pKDapp (FRK): 7.28; EC50 (NUAK1): 532 nM
